Entries after “also recorded” stand apart in the source; their conditions may differ. No end group written: not given here.
How the values were obtained:
[1] = tested on: NSC-34 motor-neuron-like cells; assay: WST-1 assay (dysmetabolism) in NSC-34 cells; type: cell-based, Mouse; details: for reduction of metabolic activity in NSC-34 compared to CHO: DRP 30 and 3 μM, 48 h
Excerpt: WST-1 Assay: The WST-1 assay is a colorimetric assay that measures cell metabolism. Cells with a healthy metabolism contain mitochondrial dehydrogenase enzymes that remove hydrogen atoms from certain molecules, resulting in a release of energy that the cell can use to perform critical reactions. In the WST-1 assay, a water soluble tetrazolium salt substrate (known as WST-1) is applied, which readily enters cells and their mitochondria upon application. If cells are viable, their mitochondrial dehydrogenase enzymes will catalyze the reaction to convert this WST-1 substrate to a colored product called Formazan. The production of this colored Formazan product by viable cells can be quantified using a spectrophotometer (plate reader). Higher absorbance readings correspond to greater metabolic activity/cell viability.
NSC-34 Cell Culture: NSC-34 cells (Cedarlane Laboratories, Burlington, ON, CA) were cultured in a complete medium consisting of High Glucose Dulbecco's Modified Eagle Medium (Millipore-Sigma, Burlington, MA, USA) supplemented with 10% US-origin fetal bovine serum (Thermo-Fisher Scientific, Cambridge, MA, USA), 1% 200 mM L-Glutamine solution (Thermo-Fisher Scientific, Cambridge, MA, USA), and 1% 10,000 U/mL Penicillin-Streptomycin solution (Thermo-Fisher Scientific, Cambridge, MA, USA). Prior to preparation of NSC-34 complete medium, L-Glutamine and Penicillin-Streptomycin solutions were aliquoted and stored at −20° C., and DMEM/High Glucose was stored at 4°. […] Prepared complete medium, DPBS, and Trypsin were always heated in a 37° C. water bath before use, and stored at 4° C. between uses. Cell counts for plating were performed using a Hausser Scientific cell counting chamber (Thermo-Fisher Scientific, Cambridge, MA, USA).
Proteins were reconstituted in sterile DMSO (Millipore-Sigma, Burlington, MA, USA) to stock concentrations of 10 mM, and stored at 4° C.
After reconstitution using the solvents specified in Table _, stocks were aliquoted to 15-20 μL and immediately stored at −20° C.
One row on the top and bottom of the plate, and two columns on either side of the plate, were left without cells and contained culture medium only to minimize experimental well volume evaporation. After plating, cells were incubated for 24 h at 37° C., 5% CO2 prior to DRP and/or PRMT inhibitor addition. At time of DRP/PRMT inhibitor addition, desired doses of DRP for challenge and inhibitor for treatment were achieved by diluting aliquots of each stock in warm culture medium. During experiments where both PRMT inhibitors and DRPs were used, PRMT inhibitors were always applied to wells first, and followed by DRP application. […] Inhibitor toxicity controls were included as wells treated with the desired doses of drug for the experiment, but no DRP. DRP toxicity controls were included as wells only treated with the doses of DRP used for challenge. […] Additional controls needed for each endpoint are specified in the “WST-1 Assay” and “LDH Assay” sections of these methods.
WST-1 Assay: Cells were plated and prepared using the steps described in the “Plating NSC-34 and Dosing with DRPs and PRMT Inhibitors” section of these methods. Other controls for this experiment included wells containing only cells in culture medium, and culture medium only. At time of testing, culture medium was removed from wells and replaced with a warmed, sterile-filtered solution consisting of DPBS with calcium and magnesium, and 4.5 g/L D-glucose (Millipore-Sigma, Burlington, MA, USA). To wells containing 200 μL DPBS-glucose solution, 20 μL/well WST-1 reagent (Millipore-Sigma, Burlington, MA) was applied and plates were then incubated at 37° C., 5% CO2 for 1 h before plates were read at 450 nm on a SpectraMax M3 Microplate Reader (Molecular Devices, San Jose, CA, USA). Experiments included three replicates per condition.

[2] = tested on: NSC-34 cells; assay: BrdU ELISA (proliferation) in NSC-34 cells; type: cell-based, Mouse; details: for abrogation of GR-induced proliferation inhibition: 300 nM GR15, 24 h; for effect of DRP on proliferation activity: compared to DMSO-treated controls
Protocol: BrdU ELISA: The BrdU ELISA is an ELISA detecting cell proliferation activity. BrdU is a pyrimidine analog that, when inside the cell, can be incorporated instead of thymidine into newly synthesized strands of DNA. Just as is indicated by thymidine incorporation into DNA, BrdU incorporation into cell DNA indicates DNA synthesis activity, which is required for cell proliferation. In the BrdU ELISA, cells are treated with test compounds as well as BrdU reagent, and then incubated for 24 hours before testing. During testing, an anti-BrdU antibody detects the incorporation of BrdU into cell DNA that occurred over the 24-hour period, as a surrogate for cell proliferation activity. This anti-BrdU antibody is then labelled with a secondary antibody tagged with a colored substrate, which can be quantified spectrophotometrically. Greater absorbance readings correspond to more cell proliferation activity.
Cells were plated in culture medium in 2 96-well plates at a density of 3.7×10^4 cells per well, and incubated overnight at 37° C., 5% CO2.
The following conditions were plated in triplicate.
Plates were incubated for 24 h at 37° C., 5% CO2. Cells were tested and data were analyzed using the procedure detailed in BrdU ELISA kit instructions.
Cells were plated in culture medium in 2 96-well plates at a density of 5×10^4 cells per well, and incubated overnight at 37° C., 5% CO2. […] 10 μL of each concentration would be added to 100 μL base media in plate to achieve final concentrations of 3, 1, 0.3, 0.1, 0.03, and 0.01 μM DRP.
The following conditions were plated in triplicate. Samples were surrounded by border wells on the outside of the plate filled with sterile Phosphate-buffered saline to prevent evaporation of volume in experimental wells during incubation; • Culture medium only • Background (Cells only in culture medium, without BrdU reagent) • Untreated (Cells only in culture medium, with BrdU reagent) • DMSO Controls (Cells treated with BrdU reagent and the amount of DMSO that DRP-treated cells were exposed to at each concentration) • i. The DMSO controls tested were as follows, corresponding to DRP doses starting at the highest (3 μM to the lowest 0.01 μM), and were diluted in culture medium: • 1. 0.03% DMSO • 2. 0.01% DMSO • 3. 0.003% DMSO • 4. 0.001% DMSO • 5. 0.0003% DMSO • 6.

Row | Compound | abrogation of ADMe-GR15-induced dysmetabolism ([1]; 3 μM ADMe-GR15 challenge, 24 h, MS023 0.1-10 μM, three repeats) | lowest dose with significant partial abrogation of dysmetabolism in GR-treated cells ([1]; 3 μM GR15, 24 h, MS023 0.01-3 μM) [µM] | dose dependence of abrogation of GR15-induced dysmetabolism ([1]; 3 μM GR15 challenge, 24 h, dose range of the example) | abrogation of GR-induced dysmetabolism ([1]; 3 μM GR15 challenge, 24 h, inhibitor dose 3 μM) | abrogation of GR15-induced dysmetabolism ([1]; 3 μM GR15 challenge, 24 h, inhibitor doses 1 and 3 μM) | relative potency against GR- vs PR-induced dysmetabolism ([1]; 3 μM GR15 or PR15, 24 h, MS023 0.01-3 μM) | lowest dose with significant partial abrogation of dysmetabolism in PR-treated cells ([1]; 3 μM PR15, 24 h, MS023 0.01-3 μM) [µM] | dose dependence of abrogation of PR15-induced dysmetabolism ([1]; 3 μM PR15 challenge, 24 h, dose range of the example) | abrogation of PR15-induced dysmetabolism ([1]; 3 μM PR15 challenge, 24 h, inhibitor doses 1 and 3 μM) | dysmetabolism independently of DRP challenge ([1]; no DRP, over all doses tested) | abrogation of GR-induced proliferation inhibition ([2]; all doses (1-60 μM)) | abrogation of GR-induced proliferation inhibition ([2]; dose 3 μM) | excessive proliferation ([2]; 300 nM GR15 or PR15, 24 h, all doses tested (1-60 μM)) | abrogation of PR-induced proliferation inhibition ([2]; 300 nM PR15, 24 h, all doses (1-60 μM)) | reduction of metabolic activity in NSC-34 compared to CHO [1] | rank among DRPs as inhibitor of proliferative activity ([2]; DRP 0.01-3 μM, 24 h) | effect of DRP on proliferation activity ([2]; DRP 0.01-3 μM, 24 h) | dysmetabolism induced by DRP challenge ([1]; DRP 10 nM-3 μM, 24 h)
1 | CC(C)Oc1ccc(-c2c[nH]cc2CN(C)CCN)cc1 [MS023] | did not abrogate | 0.1 | in a dose-dependent manner; also recorded: consistently dose-dependently abrogated | abrogated GR-induced dysmetabolism | completely abrogated | more potently abrogated GR-induced dysmetabolism | 0.3 | in a dose-dependent manner; also recorded: dose-dependently abrogated | completely abrogated | No doses of MS023 tested induced dysmetabolism; also recorded: No doses of MS023 tested produced dysmetabolism | partially abrogated | fully rescuing | without inducing excessive proliferation | fully abrogated |  |  |  | 
2 | PRPRPRPRPRPRPRPRPRPRPRPRPRPRPR [PR15] |  |  |  |  |  |  |  |  |  |  |  |  |  |  | significantly greater reduction of metabolic activity in NSC-34 | the strongest inhibitor | significantly suppressed proliferative activity in a dose-dependent manner | 
3 | GRGRGRGRGRGRGRGRGRGRGRGRGRGRGR [GR15] |  |  |  |  |  |  |  |  |  |  |  |  |  |  | significantly greater reduction of metabolic activity in NSC-34 |  | significantly suppressed proliferative activity in a dose-dependent manner | induced dose-dependent dysmetabolism
